Entries after “also recorded” stand apart in the source; their conditions may differ.
Experiments:
Format in all cases: in vivo
[1] = test system: STAM mice; experiment: STAM model: whole blood and plasma biochemistry; details: for Whole Blood Glucose Levels: non-fasting, 5-9 wks
Protocol: (§1) NASH-HCC (STAM™) Model. C57BL/6 (15-day-pregnant female) mice are obtained from Charles River Laboratories Japan (Kanagawa, Japan). Male pups are selected for the study. NASH is induced in male mice by a single subcutaneous injection of 200 μg streptozotocin (STZ, Sigma-Aldrich, USA) solution 2 days after birth, followed by feeding a HFD (57 kcal % fat, cat#: HFD32, CLEA Japan, Japan) beginning at 4 weeks of age. At 5 weeks of age, mice are divided into a control group and one or more treated group (generally 8 mice per group). Animals are sacrificed at 9 weeks of age, and biochemical, histological, and gene expression analyses are performed.
(§2) During weeks 5-9 (starting at day 35±2), test compound is administered (generally orally) at various doses diluted to 10 mL/kg and according to various dosing protocols to treatment groups (8 mice each) while a second group (8 mice) is administered vehicle only. Animals are sacrificed at 9 weeks.
Measurement of whole blood and plasma biochemistry. Non-fasting blood glucose was measured in whole blood using LIFE CHECK (EIDIA, Japan). For plasma biochemistry, blood was collected in polypropylene tubes with anticoagulant (Novo-Heparin, Mochida Pharmaceutical, Japan) and centrifuged at 1,000×g for 15 minutes at 4° C. The supernatant was collected and stored at −80° C. until use. Plasma ALT levels were measured by FUJI DRI-CHEM 7000 (Fujifilm, Japan). Plasma insulin, MIF and IL-22 were quantified by Ultra Sensitive Mouse Insulin ELISA Kit (Morinaga Institute of Biological science, Japan), Mouse Macrophage Migration Inhibitory Factor (MIF) ELISA (Kamiya Biomedical, USA), Quantikine ELISA Mouse/Rat IL-22 Immunoassay kit (R&D Systems, USA), respectively.
(§3) Illustrative dose response test groups. Group 1-Normal. Eight normal mice are fed with a normal diet ad libitum without any treatment until 9 weeks of age. Group 2-Vehicle. Eight NASH mice are orally administered vehicle (0.5% w/v methylcellulose+0.2% Tween®80) in a volume of 10 mL/kg twice daily from 5 to 9 week of age. Group 3-solithromycin 5 mg/kg. Eight NASH mice are orally administered vehicle supplemented with solithromycin at a dose of 5 mg/kg in the morning and the vehicle in the evening (5 mg/kg/day) from 5 to 9 weeks of age. Group 4-solithromycin 10 mg/kg. Eight NASH mice are orally administered vehicle supplemented with solithromycin at a dose of 10 mg/kg twice daily (20 mg/kg/day) from 5 to 9 weeks of age. Group 5-solithromycin 25 mg/kg. Eight NASH mice are orally administered vehicle supplemented with solithromycin at a dose of 25 mg/kg twice daily (50 mg/kg/day) from 5 to 9 weeks of age. Group 6-solithromycin 50 mg/kg. Eight NASH mice are orally administered vehicle supplemented with solithromycin at a dose of 50 mg/kg once daily (50 mg/kg/day) from 5 to 9 weeks of age.

[2] = test system: STAM mice; experiment: STAM model: Sirius red staining, fibrosis area; details: for Sirius red-positive area (% of area showing fibrosis): STAM mice liver
Protocol: as §1, §2
To visualize collagen deposition (a measure of fibrosis), Bouin's fixed left lateral liver sections are stained using picro-Sirius red solution (Waldeck, Germany).
(§4) For quantitative analysis of fibrosis area, bright field images of Sirius red-stained sections are captured around the central vein using a digital camera (DFC280; Leica, Germany) at 200-fold magnification, and the positive areas in 5 fields/section are measured using ImageJ software (National Institute of Health, USA). For quantitative analysis of inflammation area, bright field images of F4/80-immunostained sections are captured around the central vein using a digital camera (DFC280; Leica, Germany) at 200-fold magnification, and the positive areas in 5 fields/section are measured using ImageJ software (National Institute of Health, USA).
as §3

[3] = test system: STAM mice; experiment: STAM model: liver immunohistochemistry (F4/80, Gr-1, CK-18); details: for F4/80-positive area (%) a measure of macrophage density: STAM mice liver
Protocol: as §1, §2
For immunohistochemistry (a measure of inflammation), sections are cut from frozen liver tissues embedded in Tissue-Tek O.C.T. compound and fixed in acetone. Endogenous peroxidase activity is blocked using 0.03% H2O2 for 5 minutes, followed by incubation with Block Ace (Dainippon Sumitomo Pharma, Japan) for 10 minutes. The sections were incubated with a 200-fold dilution of anti-F4/80 antibody (BMA Biomedicals, Switzerland), a 50-fold dilution of anti-CK-18 antibody (LifeSpan BioSciences, USA) or anti-Gr-1 antibody (culture supernatant) over night at 4° C. F4/80 is a marker for macrophage and Kupffer cells in the liver; CK-18 antibody measures the cytoskeleton in damaged hepatocytes; and anti-Gr-1 antibody measures the neutrophil response. After incubation with secondary antibody (HRP-Goat anti-rat antibody, Invitrogen, USA), enzyme-substrate reactions are performed using 3, 3′-diaminobenzidine/H2O2 solution (Nichirei, Japan).
as §4, §3

[4] = QT / tQT effects and plasma levels
Text: The compounds described herein, including solithromycin, are effective in treating host animals with high cardiovascular disease risk.

CC[C@H]1OC(=O)[C@@](C)(F)C(=O)[C@H](C)[C@@H](O[C@@H]2O[C@H](C)C[C@H](N(C)C)[C@H]2O)[C@](C)(OC)C[C@@H](C)C(=O)[C@H](C)[C@H]2N(CCCCn3cc(-c4cccc(N)c4)nn3)C(=O)O[C@]12C [solithromycin]
Plasma ALT ([1]; 5 mg/kg q.d.): 52 ± 78 U/L
Plasma IL-22 ([1]; 5 mg/kg q.d.): 31.8 ± 1.6 pg/mL
Plasma insulin ([1]; 5 mg/kg q.d.): 0.25 ± 0.10 ng/mL
Plasma MIF ([1]; 5 mg/kg q.d., 5 mg/kg): no statistically significant differences
Plasma MIF ([1]; 5 mg/kg q.d., listed as SOLI, 5 mg/kg): 4665 ± 2131 pg/mL
Plasma ALT ([1]; 10 mg/kg b.i.d.): 31 ± 19 U/L
Plasma IL-22 ([1]; 10 mg/kg b.i.d.): 33.0 ± 5.0 pg/mL
Plasma insulin ([1]; 10 mg/kg b.i.d.): 0.41 ± 0.35 ng/mL
Plasma MIF ([1]; 10 mg/kg b.i.d., 10 mg/kg): no statistically significant differences
Plasma MIF ([1]; 10 mg/kg b.i.d., listed as SOLI, 10 mg/kg): 4852 ± 1720 pg/mL
Plasma ALT ([1]; 25 mg/kg b.i.d.): 34 ± 14 U/L
Plasma IL-22 ([1]; 25 mg/kg b.i.d.): 33.8 ± 7.2 pg/mL
Plasma insulin ([1]; 25 mg/kg b.i.d.): 0.41 ± 0.22 ng/mL
Plasma MIF ([1]; 25 mg/kg b.i.d., 25 mg/kg): significantly increased
Plasma MIF ([1]; 25 mg/kg b.i.d., listed as SOLI, 25 mg/kg): 11748 ± 7633 pg/mL
Plasma IL-22 levels compared to vehicle group ([1]; any doses): no statistically significant differences
Plasma insulin levels compared to vehicle group ([1]; any doses): no statistically significant differences; also recorded: not significantly affected
Plasma ALT levels compared to vehicle group ([1]; any doses (Groups 3-6)): no significant differences
Whole Blood Glucose Levels ([1]; 5 mg/kg q.d. oral, 5 mg/kg): no statistically significant differences
Whole Blood Glucose Levels ([1]; 5 mg/kg q.d. oral, listed as SOLI, 5 mg/kg): 726 ± 101 mg/dL
Whole Blood Glucose Levels ([1]; 5 mg/kg q.d. oral, listed as Solithromycin, 5 mg/kg): 726 ± 101 mg/dL
Whole Blood Glucose Levels ([1]; 10 mg/kg b.i.d. oral, 10 mg/kg): no statistically significant differences
Whole Blood Glucose Levels ([1]; 10 mg/kg b.i.d. oral, listed as SOLI, 10 mg/kg): 713 ± 172 mg/dL
Whole Blood Glucose Levels ([1]; 10 mg/kg b.i.d. oral, listed as Solithromycin, 10 mg/kg): 713 ± 172 mg/dL
Whole Blood Glucose Levels ([1]; 25 mg/kg b.i.d. oral, 25 mg/kg): Statistically significant blood glucose decrease
Whole Blood Glucose Levels ([1]; 25 mg/kg b.i.d. oral, listed as SOLI, 25 mg/kg): 497 ± 259 mg/dL
Whole Blood Glucose Levels ([1]; 25 mg/kg b.i.d. oral, listed as Solithromycin, 25 mg/kg): 497 ± 259 mg/dL
Whole Blood Glucose Levels ([1]; 50 mg/kg q.d. oral, 50 mg/kg): Statistically significant blood glucose decrease
Whole Blood Glucose Levels ([1]; 50 mg/kg q.d. oral, listed as Solithromycin, 50 mg/kg): 380 ± 170 mg/dL
Sirius red-positive area (% of area showing fibrosis) ([2]; 5 mg/kg): no statistically significant differences
Sirius red-positive area (% of area showing fibrosis) ([2]; 5 mg/kg, listed as SOLI): 0.85 ± 0.28%
Sirius red-positive area (% of area showing fibrosis) ([2]; 10 mg/kg): tended to decrease
Sirius red-positive area (% of area showing fibrosis) ([2]; 10 mg/kg, listed as SOLI): 0.72 ± 0.27%
Sirius red-positive area (% of area showing fibrosis) ([2]; 25 mg/kg): significantly decreased; also recorded: Statistically significant reduced fibrosis
Sirius red-positive area (% of area showing fibrosis) ([2]; 25 mg/kg, listed as SOLI): 0.65 ± 0.27 %
Fibrosis area (Sirius red-positive area) compared to vehicle group ([2]; STAM mice, Group 6 (50 mg/kg q.d.)): significantly decreased
F4/80-positive area (%) a measure of macrophage density ([3]; 5 mg/kg): 10.83 ± 1.38%
F4/80-positive area (%) a measure of macrophage density ([3]; 10 mg/kg): 9.33 ± 1.31%
F4/80-positive area (%) a measure of macrophage density ([3]; 25 mg/kg): 10.63 ± 2.11%
Area of F4/80-positive macrophages compared to vehicle group ([3]; STAM mice, Groups 3-6): no significant differences
Gr-1 positive cells (neutrophil infiltration) in liver compared to vehicle group ([3]; STAM mice, all doses): decreased; also recorded: reduced
CK-18 immunostaining compared to vehicle group ([3]; STAM mice, any doses): no obvious changes
Plasma levels achieved ([4]; PK analysis in QT evaluation): 2000 to 3000 ng/mL
QT or tQT prolongation ([4]; dosed orally or intravenously): does not show any QT or tQT prolongation
